Measured values as given in patent US20090048117A1, “MODULATION OF IMMUNE SYSTEM FUNCTION BY MODULATION OF POLYPEPTIDE ARGININE METHYLTRANSFERASES” (President and Fellows of Harvard College, priority 2003, published 2009).

Tests used:
[1] = system: IL-4 promoter; test: IL-4 luciferase reporter assay in Jurkat cells; assay type: cell-based, human; details: PRMT1 with NFATc2 and c-Maf, PMA/ionomycin stimulation
Experimental: FIGS. 11A-11C depict the effects of MTA on T helper cytokine production. (A) T helper cells were isolated from the lymph nodes of DO11.10 TCR transgenic mice and grown under Th1 or Th2 conditions for 7 days. Th1 and Th2 cells were treated with PMA/ionomycin for 3 hrs or pretreated with 1 mM MTA for 60 min prior to PMA/ionomycin stimulation. RNA was isolated with analyzed by RNase protection analysis for transcript level of indicated cytokines. L32 and GAPDH included in the multitemplate probe set served as an internal control. (B) Cells were grown as in (A) either pretreated with 1 mM MTA or left untreated and intracellular cytokine analysis was performed after stimulation with PMA/ionomycin for 2 hrs and an additional 2 hrs with […] monensin. (C) MTA inhibits IL-4 promoter activity. Jurkat cells were transfected with IL-4 reporter vector (2.5 μg) and expression vectors for c-Maf (2.5 μg), NFATc2 (2.5 μg), and PRMT1 (10 μg) along with a TK-renilla luciferase vector (5 ng) as an internal control. Transfectants were left unstimulated or pretreated with 1 mM MTA before a 6 hr PMA/ionomycin stimulation. Luciferase values were calculated relative to TK renilla luciferase internal controls and are expressed relative to unstimulated reporter activity. Similar results were obtained in at least three independent experiments. […]

[2] = system: NFAT reporter element; test: NFAT consensus site luciferase reporter assay in Jurkat cells; assay type: cell-based, human; details: PRMT1 with NFATc2
Experimental: FIGS. 13A-13D depict the regulation of the IFNγ and IL-4 promoters by PRMT1. (A) Jurkat cells were transfected with the 9.2 kb IFNγ luciferase reporter 5 μg) and expression vectors for T-bet (5 μg) and PRMT1 (10 μg). Cells were unstimulated or stimulated with PMA/ionomycin for 6 hrs prior to luciferase assays. (B) Jurkat cells were transfected with the IL-4 luciferase reporter (2.5 μg) and expression vectors for NFATc2 (2.5 μg), c-Maf (2.5 μg), and PRMT1 (10 μg). Cells were treated as in (A). (C) Jurkat cells were transfected with the IL-4 luciferase reporter (2.5 μg) and expression vectors for JunB (2.5 μg), c-Maf (2.5 μg), and PRMT1 (10 μg). Cells were treated as in (A). (D) Jurkat cells were transfected with an luciferase reporter driven by NFAT consensus sites and expression vectors for NFATc2 (2.5 μg) and PRMT1 (10 μg). Cells were treated as in (A). (Luciferase units were normalized to TK-renilla luciferase activity. Results are representative to at least three independent experiments.)
The IL-4 promoter contains several composite NFAT/AP-1 sites. Whether PRMT1 coactivation is mediated through NFAT or AP-1 factors was investigated as both NFAT and JunB are involved in the regulation of IL-4 promoter activity (Li, B., et al. (1999) EMBO J 18:420-432). […]

[3] = system: NFAT4; test: Nuclear translocation of NFAT4 by immunofluorescence in HepG2 cells; assay type: cell-based; set-up: key: Subcellular localization of NFAT4 in the cytoplasm is indicated by a (−); nuclear translocation of NFAT4 is indicated by (^+); details: 1 μM ionomycin
Experimental: The effect of NIP45 on the nuclear translocation of NFAT4 also was investigated. HepG2 cells were transfected with either NFAT4 or NFAT4 plus NIP45 and stimulated the following day with 1 μM ionomycin for 0, 2, 4, 8 or 15 minutes. For one sample, the cells were stimulated for 15 minutes with ionomycin and then washed with fresh media and allowed to rest for an additional 15 minutes (indicated as “15 min.^+15 min. rest” in Table 1). This analysis is designed to examine the function of NIP45 as a nuclear retention factor. […] All samples were then fixed and analyzed by immunofluorescence for translocation of NFAT4 as described above. Subcellular localization of NFAT4 in the cytoplasm is indicated by a (−) and nuclear translocation of NFAT4 is indicated by (^+).

Compound	IL-4 promoter activity over NFATc2/c-Maf only [1]	augmentation of NFATc2 transactivation of an NFAT reporter element [2]	Nuclear Translocation of NFAT4 ([3]; 0 min.)	Nuclear Translocation of NFAT4 ([3]; 8 min.)	Nuclear Translocation of NFAT4 ([3]; 15 min.)	Nuclear Translocation of NFAT4 ([3]; 15 min. + 15 min. rest in fresh media)
PRMT1: type I protein arginine methyltransferase (SEQ ID NO:10), expressed from a transfected expression vector	5 fold	approximately 10 fold				
C[C@H](CCC(=O)O)C[C@H](C)C[C@H](C)C(=O)/C=C(\O)[C@H](C)C[C@H](C)C/C=C/[C@@H](C)[C@@H](O)[C@@H](C)[C@@H](O)C[C@@H]1CC[C@@](C)([C@H]2CC[C@@](C)([C@@H](C)O)O2)O1 [Ionomycin, ionomycin]			−	+	+	−
